Results from ChEMBL document CHEMBL3526100, “A refined cytochrome P540 IC₅₀ shift assay for reliably identifying CYP3A time-dependent inhibitors” (Drug Metab Dispos, 2011).

Legend:
Type in all cases: ADME
[1] = biological target: T1, Cytochrome P450 3A4 (Homo sapiens, UniProt P08684); assay: Time dependent inhibition of CYP3A4 in human liver microsomes assessed as conversion of testosterone to 6beta-hydroxytestosterone at 0.01 to 100 uM preincubated for 60 mins followed by testosterone treatment measured after 10 mins by LC-MS/MS analysis in presence of NADPH
[2] = biological target: T1, Cytochrome P450 3A4; assay: Time dependent inhibition of CYP3A4 in human liver microsomes assessed as conversion of testosterone to 6beta-hydroxytestosterone at 0.01 to 100 uM preincubated for 60 mins followed by testosterone treatment measured after 10 mins by LC-MS/MS analysis
[3] = biological target: T1, Cytochrome P450 3A4; assay: Time dependent inhibition of CYP3A4 in human liver microsomes assessed as conversion of testosterone to 6beta-hydroxytestosterone at 0.01 to 100 uM preincubated for 60 mins followed by testosterone treatment measured after 10 mins by refined CYP450 IC50 shift assay in presence of NADPH
[4] = biological target: T1, Cytochrome P450 3A4; assay: Time dependent inhibition of CYP3A4 in human liver microsomes assessed as conversion of testosterone to 6beta-hydroxytestosterone at 0.01 to 100 uM preincubated for 60 mins followed by testosterone treatment measured after 10 mins by refined CYP450 IC50 shift assay

Measured: inhibition (INH)

T1 sequence (P08684 whole entry): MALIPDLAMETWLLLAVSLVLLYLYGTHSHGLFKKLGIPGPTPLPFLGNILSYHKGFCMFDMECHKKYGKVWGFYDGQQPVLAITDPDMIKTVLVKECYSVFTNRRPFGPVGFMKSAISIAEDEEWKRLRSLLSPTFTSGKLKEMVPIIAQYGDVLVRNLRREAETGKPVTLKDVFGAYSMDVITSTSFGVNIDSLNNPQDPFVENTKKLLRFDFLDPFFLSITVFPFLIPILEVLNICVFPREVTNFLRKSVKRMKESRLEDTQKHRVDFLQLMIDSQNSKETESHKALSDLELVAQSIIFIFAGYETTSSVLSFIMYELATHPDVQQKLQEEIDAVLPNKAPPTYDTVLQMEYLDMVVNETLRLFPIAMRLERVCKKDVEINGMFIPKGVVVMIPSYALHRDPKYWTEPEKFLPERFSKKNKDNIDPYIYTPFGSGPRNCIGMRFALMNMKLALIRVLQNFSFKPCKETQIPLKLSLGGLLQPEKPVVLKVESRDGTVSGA

CC[C@H]1OC(=O)[C@H](C)[C@@H](O[C@H]2C[C@@](C)(OC)[C@@H](O)[C@H](C)O2)[C@H](C)[C@@H](O[C@@H]2O[C@H](C)C[C@H](N(C)C)[C@H]2O)[C@](C)(O)C[C@@H](C)C(=O)[C@H](C)[C@@H](O)[C@]1(C)O [ERYTHROMYCIN]
Active: all assays above

O=C(c1ccc(OCCN2CCCCC2)cc1)c1c(-c2ccc(O)cc2)sc2cc(O)ccc12 [RALOXIFENE]
Active: all assays above

CNCCC(Oc1ccc(C(F)(F)F)cc1)c1ccccc1 (stereo not given) [FLUOXETINE]
Active: all assays above

CC(C)=CCC/C(C)=C/COc1c2ccoc2cc2oc(=O)ccc12 [BERGAMOTTIN]
Active: all assays above

C/C(=C\COc1c2ccoc2cc2oc(=O)ccc12)CCC(O)C(C)(C)O (stereo not given) [DIHYDROXYBERGAMOTTIN]
Active: all assays above
